Records with an inconclusive call do not appear. The source made the active and inactive calls. How the calls were made is not given here. Some results are limits rather than exact numbers.

This is an account of results in PubChem BioAssay AID504882 (Broad Institute, 2011).

In the assay the test system is EBV lymphoblastoid cells (LCL) viability, plate reader. Briefly: LCL viability reduction – cell-based, plate reader, cherry-picks, set 2, cytotoxicity control, dose response (AID 504882).
Usually AC50 stands for the concentration at which the activity in the assay is half-maximal. On to `O=C(N/N=C/c1ccc(O)cc1O)c1ccc(CN2C(=O)c3cccc4cccc2c34)cc1`, for which the half-maximal activity concentration (AC50) was 3.53 µM. To `CCN(CC)c1ccc(/C=N/NC(=O)c2ccc3nc[nH]c3c2)c(O)c1` belongs 4.14 µM; to `COc1ccc(C(NC(C)=O)c2cc(Cl)c3cccnc3c2O)cc1` (configuration not stated), 6.92 µM; to `CCCCC(=O)NC(c1cccc([N+](=O)[O-])c1)c1ccc2cccnc2c1O` (configuration not stated), 5.14 µM. Regarding `c1ccc(C2=NNC(=NC3CC3)SC2)cc1`, the AC50 was 11.9 µM. `CCn1c2ccccc2c2cc(/C=N/n3cnnc3)ccc21`: the AC50 was 10.7 µM. To `COc1ccc(OCc2cccc(C(=O)NN)c2)cc1` belongs > 19.5 µM (inactive); to `N#Cc1ccc(-c2csc(NNC(=O)c3ccc(Br)cc3)n2)cc1`, 5.38 µM; to `CC(C)CC(=NNC(=O)c1ccncc1)c1cc(Cl)ccc1O`, 3.19 µM.

For `Oc1c(C(Nc2nc3ccccc3s2)c2ccco2)ccc2cccnc12` (configuration not stated), the AC50 is 2 µM.

`COc1ccc(/C=N/Nc2cc(C)nc3ccc(OC)cc23)c(OC)c1`: the AC50 was 3.47 µM. Next, `CC(=NNC(=S)N1CCCCC1)c1cccc(C)n1`: 2.37 µM; `COc1cccc(/C=N/NC(=O)c2[nH]nc3c2CCc2ccccc2-3)c1O`: 4.51 µM. Turning to `Nc1ccn([C@@H]2O[C@H](CO)[C@@H](O)[C@@H]2O)c(=O)n1`, the AC50 was 0.748 µM.

On to `O=C(N/N=C/c1sc2ccccc2c1O)c1cccc2ccccc12`, for which the AC50 is 1.71 µM. Consider `CC(=O)NC(c1ccc(Cl)cc1Cl)c1ccc2cccnc2c1O` (configuration not stated), for which the AC50 was 1.56 µM. To `CC(=O)c1ccc(-c2nc3c4ccccc4ccn3c2C(C)=O)o1` belongs 0.371 µM; to `COc1nc(Nc2nc3ccccc3c(=O)[nH]2)nc2ccc(C)cc12`, 2.23 µM. Next, `Cc1onc(-c2ccccc2)c1C(=O)NC(=S)NNC(=O)c1ccc(O)cc1O`: > 19.5 µM (inactive); `C/C(=N\NC(=O)c1cccc(Br)c1)c1ccccn1`: 0.803 µM; `Cc1ccc(/C=N/NC(=O)c2cc(-c3ccccc3)nc3ccccc23)o1`: > 19.5 µM (inactive). To `CCOC(=O)c1c(C)[nH]c(C(=O)N/N=C\c2ccccc2O)c1C` belongs 6.7 µM. On to `COc1cccc(/C=N/Nc2ncnc3c2ncn3Cc2ccccc2)c1O`, for which the AC50 was 2.21 µM. Regarding `C=C1C(=O)C2=CC1CCC(=O)C1(C)CCC(OC(C)=O)C(C)(C)C1CC2O` (configuration not stated), the AC50 was 5.14 µM. Next, `Cc1nc2c(-c3ccc(Cl)cc3)c(C)[nH]n2c(=O)c1Cc1ccccc1`: 6.96 µM; `Cc1ccc2[nH]c3c(c2c1)CCCC3NC(=O)CCl` (configuration not stated): 1.41 µM; `O=C(c1ccccc1)C(CCC(CN1CCOCC1)C(=O)c1ccccc1)CN1CCOCC1` (configuration not stated): 7.73 µM. As for `C[n+]1c2n(c3ccccc31)N=C(c1cc(C(C)(C)C)c(O)c(C(C)(C)C)c1)CS2`, the concentration at half-maximal activity (AC50) is 7.62 µM. To `Cc1ccc(CSc2nc3ccncc3[nH]2)cc1` belongs 19.5 µM; to `O=C(CF)N(O)c1ccc(C=Cc2ccccc2)cc1`, 4.21 µM; to `COc1ccc(O)c(/C=N/NC(=O)c2ccc(OCc3cccc(Br)c3)cc2)c1`, 4.03 µM.

As to `Cn1nnnc1N=N/C(=N/Nc1ccccc1)c1ccccc1`, the AC50 was 1.71 µM. To `CCCN(CCC)S(=O)(=O)c1ccc(C(=O)Nc2nnc(-c3cc(OC)cc(OC)c3)o2)cc1` belongs > 19.5 µM (inactive). To `C/C(=N/NC(=O)c1ccc(C(C)(C)C)cc1)c1ccccn1` belongs 1.05 µM; to `C#CCN(C[C@@H]1[C@@H](OC(=O)NCc2ccccc2F)[C@@H](OC(=O)NCc2ccccc2F)Cn2c(=O)ccc(=O)n21)S(=O)(=O)c1ccc(C)cc1`, 3.8 µM; to `COc1ccc(/C=C/c2nc3ccccc3n2C)cc1`, 3.28 µM. To `COc1cccc(/C=N/Nc2nc3ccccc3[nH]2)c1O` belongs 4.42 µM.
